In ChEMBL document CHEMBL1124620, “New 1,4-dihydropyridine derivatives combining calcium antagonism and alpha-adrenolytic properties” (J Med Chem, 1989) one finds IC50 and pA2 data, which are given here for nine compounds.

Experiment [1] has as its target T1, Adrenergic receptor alpha-2 (Homo sapiens, UniProt P08913+P18825+P18089).
T1 sequence (P08913 whole entry): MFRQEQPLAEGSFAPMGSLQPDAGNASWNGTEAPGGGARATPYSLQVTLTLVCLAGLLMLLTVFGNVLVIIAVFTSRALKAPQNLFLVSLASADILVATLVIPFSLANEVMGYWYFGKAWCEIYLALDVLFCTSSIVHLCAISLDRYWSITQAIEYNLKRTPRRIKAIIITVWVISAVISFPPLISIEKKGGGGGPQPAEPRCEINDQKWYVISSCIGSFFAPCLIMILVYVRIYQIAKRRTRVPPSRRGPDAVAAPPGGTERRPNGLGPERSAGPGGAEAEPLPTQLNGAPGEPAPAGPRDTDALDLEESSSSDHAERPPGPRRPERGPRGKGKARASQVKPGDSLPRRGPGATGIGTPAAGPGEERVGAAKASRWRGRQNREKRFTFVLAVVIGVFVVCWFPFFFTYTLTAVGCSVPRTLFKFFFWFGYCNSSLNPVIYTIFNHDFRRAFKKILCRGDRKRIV
T1 sequence (P18825 whole entry): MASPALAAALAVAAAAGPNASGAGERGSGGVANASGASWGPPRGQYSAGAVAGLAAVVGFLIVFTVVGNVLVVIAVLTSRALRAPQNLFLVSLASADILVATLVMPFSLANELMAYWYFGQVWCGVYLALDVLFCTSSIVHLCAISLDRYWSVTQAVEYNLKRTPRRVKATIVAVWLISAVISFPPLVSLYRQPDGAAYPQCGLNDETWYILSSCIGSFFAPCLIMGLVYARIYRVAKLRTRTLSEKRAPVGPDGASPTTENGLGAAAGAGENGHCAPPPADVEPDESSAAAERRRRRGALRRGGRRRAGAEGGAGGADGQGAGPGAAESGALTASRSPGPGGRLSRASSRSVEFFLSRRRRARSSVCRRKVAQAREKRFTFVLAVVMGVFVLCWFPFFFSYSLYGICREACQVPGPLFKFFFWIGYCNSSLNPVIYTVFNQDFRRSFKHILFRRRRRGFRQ
T1 sequence (P18089 whole entry): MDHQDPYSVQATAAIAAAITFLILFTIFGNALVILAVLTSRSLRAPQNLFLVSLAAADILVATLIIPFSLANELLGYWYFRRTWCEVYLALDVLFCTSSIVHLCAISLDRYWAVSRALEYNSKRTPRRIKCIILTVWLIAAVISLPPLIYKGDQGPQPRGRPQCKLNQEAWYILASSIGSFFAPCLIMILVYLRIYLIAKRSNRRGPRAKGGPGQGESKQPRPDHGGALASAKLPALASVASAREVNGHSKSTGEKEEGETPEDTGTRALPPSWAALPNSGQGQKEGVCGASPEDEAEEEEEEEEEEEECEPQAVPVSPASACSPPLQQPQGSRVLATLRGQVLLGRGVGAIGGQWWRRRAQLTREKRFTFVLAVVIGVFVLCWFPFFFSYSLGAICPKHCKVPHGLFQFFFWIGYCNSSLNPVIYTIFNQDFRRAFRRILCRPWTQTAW
As to the kind of experiment: In vitro ability to inhibit norepinephrine binding to alpha-2 adrenergic receptor of guinea pig vas deferens. The format is tissue-based, Cavia porcellus. As to conditions: target entry is the homologue from another species.

For a further experiment, the species on record is Rattus norvegicus. The experiment in a line: Calcium antagonistic activity was evaluated by in vitro inhibition of [3H]nitrendipine binding on rat cerebral cortex. The format is functional.
For experiment [2], the target named is T2, Adrenergic receptor alpha-1 (Rattus norvegicus, UniProt P15823+P23944+P43140).
T2 sequence (P15823 whole entry): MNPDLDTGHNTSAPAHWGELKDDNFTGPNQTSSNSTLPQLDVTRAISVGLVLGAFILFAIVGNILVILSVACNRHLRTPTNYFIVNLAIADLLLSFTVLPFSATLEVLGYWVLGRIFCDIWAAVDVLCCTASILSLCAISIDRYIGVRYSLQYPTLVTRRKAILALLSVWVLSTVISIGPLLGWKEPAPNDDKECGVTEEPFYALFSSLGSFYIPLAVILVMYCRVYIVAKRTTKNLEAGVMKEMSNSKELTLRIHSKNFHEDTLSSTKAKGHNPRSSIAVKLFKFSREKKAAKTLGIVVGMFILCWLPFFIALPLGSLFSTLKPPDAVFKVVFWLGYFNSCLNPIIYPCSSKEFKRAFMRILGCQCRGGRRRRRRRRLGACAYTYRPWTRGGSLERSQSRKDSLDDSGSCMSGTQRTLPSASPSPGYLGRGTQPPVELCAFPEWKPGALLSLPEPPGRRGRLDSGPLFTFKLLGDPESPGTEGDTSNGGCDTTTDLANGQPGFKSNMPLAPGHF
T2 sequence (P23944 whole entry): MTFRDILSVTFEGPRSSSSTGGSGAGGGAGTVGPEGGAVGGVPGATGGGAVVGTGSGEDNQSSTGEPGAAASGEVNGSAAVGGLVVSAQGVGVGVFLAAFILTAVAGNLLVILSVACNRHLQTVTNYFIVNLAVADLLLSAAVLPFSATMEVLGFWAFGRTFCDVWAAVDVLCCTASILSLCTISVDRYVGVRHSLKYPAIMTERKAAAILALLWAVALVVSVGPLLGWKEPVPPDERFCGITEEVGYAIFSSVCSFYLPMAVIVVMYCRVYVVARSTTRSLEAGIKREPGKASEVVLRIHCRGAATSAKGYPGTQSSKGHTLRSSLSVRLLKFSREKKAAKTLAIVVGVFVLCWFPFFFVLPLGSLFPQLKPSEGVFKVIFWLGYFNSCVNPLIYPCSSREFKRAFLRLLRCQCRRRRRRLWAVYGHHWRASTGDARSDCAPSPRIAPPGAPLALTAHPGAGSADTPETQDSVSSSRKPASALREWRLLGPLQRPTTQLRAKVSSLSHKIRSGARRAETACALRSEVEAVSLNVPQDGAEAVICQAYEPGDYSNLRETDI
T2 sequence (P43140 whole entry): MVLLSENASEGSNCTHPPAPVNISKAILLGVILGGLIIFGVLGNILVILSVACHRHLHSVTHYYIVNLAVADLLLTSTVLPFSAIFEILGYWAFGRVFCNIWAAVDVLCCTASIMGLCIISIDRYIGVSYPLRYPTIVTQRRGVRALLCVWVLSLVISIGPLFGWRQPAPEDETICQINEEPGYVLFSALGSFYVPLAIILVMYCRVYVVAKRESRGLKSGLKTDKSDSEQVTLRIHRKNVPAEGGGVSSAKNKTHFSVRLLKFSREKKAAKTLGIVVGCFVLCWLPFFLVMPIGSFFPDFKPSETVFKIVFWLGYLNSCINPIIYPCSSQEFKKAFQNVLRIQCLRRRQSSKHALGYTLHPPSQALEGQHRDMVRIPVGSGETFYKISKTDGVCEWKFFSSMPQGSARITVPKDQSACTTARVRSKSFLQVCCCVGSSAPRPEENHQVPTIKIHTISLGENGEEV
The experiment in a line: Alpha-1-adrenolytic activity was assessed in vitro from the ability to inhibit norepinephrine-induced contraction of rat aorta preparation.

For the next experiment, the species on record is Sus scrofa. As to the kind of experiment: Calcium antagonistic activity was evaluated from the inhibition of CaCl2-induced contraction of depolarized pig coronary artery. Format: functional.
The target of experiment [3] is T1, Adrenergic receptor alpha-2. The experiment in a line: Alpha-2-adrenolytic activity was assessed in vitro from the ability to inhibit norepinephrine binding to guinea pig vas deferens. The conditions noted are these: target entry is the homologue from another species. Further details: species or system Cavia porcellus.
The mark [4] stands for this setting: Rattus norvegicus, Cerebral cortex, 90 min.

Bounds are passed on as bounds.

Take `CO/C(O)=C1\C(C)=NC(C)=C(C(=O)OC(C)CN(C)CC2COc3ccccc3O2)C1c1cccc([N+](=O)[O-])c1.Cl` (stereo unspecified): the concentration for half-maximal inhibition (IC50) was >> 0.00001 M in experiment [1]; 0.05 nM in the experiment listed under Rattus norvegicus (setting [4]); >> 0.0001 M in experiment [2]; 3.8 nM in the experiment filed under Sus scrofa (Sus scrofa, Coronary artery).
As to `COC(=O)C1=C(C)NC(C)=C(C(=O)OCCN(C)C[C@H]2COc3ccccc3O2)[C@@H]1c1cccc([N+](=O)[O-])c1.Cl` (stereo in doubt; 6a), the half-maximal inhibitory concentration (IC50) in experiment [1] is >> 1e-6 M; in the experiment listed under Rattus norvegicus, 0.018 nM; in experiment [2], 0.00001 M; in the experiment listed under Sus scrofa, 1.5 nM.
As for `CO/C(O)=C1\C(C)=NC(C)=C(C(=O)OCCN(C)C(c2ccccc2)C2CCCCC2)C1c1cccc([N+](=O)[O-])c1.Cl` (stereo unspecified), the half-inhibitory concentration (IC50) in experiment [1] is more than 0.0001 M; in the experiment listed under Rattus norvegicus (setting [4]), 3.8 nM; in experiment [2], more than 0.0001 M; in the experiment filed under Sus scrofa (Sus scrofa, Coronary artery), more than 10000 nM.
As for `CO/C(O)=C1\C(C)=NC(C)=C(C(=O)OCCN(C)C(C)COc2ccccc2)C1c1cccc([N+](=O)[O-])c1.Cl` (stereo unspecified), the pA2 in experiment [1] worked out at 6.7. Besides, the IC50 in the experiment filed under Rattus norvegicus (setting [4]) is 0.073 nM; in experiment [2], 0.00007 M; in the experiment filed under Sus scrofa (Sus scrofa, Coronary artery) it was 13 nM.
In the case of `CO/C(O)=C1\C(C)=NC(C)=C(C(=O)OCCN2CCC(n3c(O)nc4ccccc43)CC2)C1c1cccc([N+](=O)[O-])c1` (stereo unspecified), the concentration for half-maximal inhibition (IC50) is >> 1e-6 M in experiment [1]; 0.6 nM in the experiment listed under Rattus norvegicus (setting [4]); 0.00001 M in experiment [2]; 1000 nM in the experiment filed under Sus scrofa (Sus scrofa, Coronary artery).
As for `CO/C(O)=C1\C(C)=NC(C)=C(C(=O)OCCN(C)CC2COc3ccccc3O2)C1c1ccccc1[N+](=O)[O-]` (stereo unspecified), the IC50 in experiment [1] is more than 1e-06 M; in the experiment filed under Rattus norvegicus (setting [4]) it was 0.07 nM; in experiment [2], more than 0.00001 M; in the experiment filed under Sus scrofa (Sus scrofa, Coronary artery), 4 nM.
Consider `CC1=NC(C)=C(C(=O)OC(C)CN(C)CC2COc3ccccc3O2)C(c2cccc([N+](=O)[O-])c2)/C1=C(\O)OC(C)C.Cl` (stereo unspecified), for which the IC50 in the experiment filed under Rattus norvegicus is 3.4 nM; in experiment [2], >> 0.00003 M; in the experiment filed under Sus scrofa (Sus scrofa, Coronary artery) it was 150 nM; in experiment [3], >> 1e-6 M.
As to `CO/C(O)=C1\C(C)=NC(C)=C(C(=O)OCCN(C)CC2COc3ccccc3O2)C1c1cccc([N+](=O)[O-])c1.Cl` (stereo unspecified), the 50% inhibitory concentration (IC50) in experiment [1] was more than 1e-06 M; in the experiment filed under Rattus norvegicus (setting [4]), 0.1 nM; in experiment [2] it was 0.00004 M; in the experiment filed under Sus scrofa (Sus scrofa, Coronary artery), 4.5 nM.
Take `COC(=O)C1=C(C)NC(C)=C(C(=O)OCCN(C)C[C@H]2COc3ccccc3O2)[C@@H]1c1cccc([N+](=O)[O-])c1.Cl` (stereo in doubt; 6b): the half-inhibitory concentration (IC50) was more than 0.0001 M in experiment [1], 2.8 nM in the experiment listed under Rattus norvegicus, more than 0.00003 M in experiment [2] and 10 nM in the experiment filed under Sus scrofa.
